Columns and labels:
[1] = system: mouse myoblasts (C2C12); experiment: Atrophy of mouse myoblasts (C2C12) induced by C26 cell supernatant, myotube diameter by HE staining; format: cell-based; details: 48 hours treatment, C26 supernatant-induced C2C12 myotubes
Procedure: C2C12 cells were inoculated in 24-well plates. The culture system was high-glucose DMEM medium containing 10% FBS with 1% penicillin-streptomycin. The plates were placed in a 5% CO2, 37° C. environment. When the cell growth density reached 50%-60%, the culture system was replaced with high-glucose DMEM culture medium containing 2% HS with 1% penicillin-streptomycin. Fresh 2% HS differentiation medium was replaced every 48 hours, and the cells were differentiated into mature cells on the 5th or 6th day. Additionally, C26 cells were inoculated in T75 flasks. The culture system was high-glucose DMEM medium containing 10% FBS with 1% penicillin-streptomycin. The flasks were placed in a 5% CO2, 37° C. environment. When subculturing, the cells were subcultured at 6 million cells/flask. After culturing in 20 ml of culture medium for 48 hours, the supernatant was collected and centrifuged at 1000 rpm for 3 mins. The supernatant was collected and centrifuged at 4000 rpm for 10 mins to obtain the C26 supernatant. The C26 supernatant and 2% HS differentiation solution were mixed at a ratio of 1:1 (volume ratio) as the muscle atrophy induction solution. Except for the control group in which 2% HS differentiation solution was added, for the other groups, an equivalent amount of muscular atrophy induction solution was added. One group was used as the model group, and the other groups were used as the treatment and experimental groups.
The diameter of myotubes after differentiation of mouse myoblasts (C2C12) was evaluated by using the diameter measurement method. The method for measuring the diameter of myotubes was as follows: after 48 hours of treatment, the myotubes were fixed with a fixative (anhydrous ethanol: formaldehyde: glacial acetic acid (volume ratio)=20:2:1) for more than 1 h and stained. The staining method used in the experiment is hematoxylin-eosin staining, referred to as HE staining for short. Hematoxylin stain is alkaline and positively charged, and it can easily bind to the negatively charged and acidic deoxyribonucleic acid (DNA) in the cell nucleus through ionic bonds to stain it blue; eosin is an acidic dye that dissociates into negatively charged anions in water, and it can easily bind to the positively charged amino groups of proteins in the cytoplasm to stain it red. The stained cells were placed under a high-power microscope to take pictures (magnification: 200 times), and the diameter of myotube cells was statistically analyzed using image J software. The muscle atrophy reversal rate was calculated according to the following formula: Muscle atrophy reversal rate=(average value of myotubes in the treatment group-average value of myotubes in the model group)/(average value of myotubes in the control group-average value of myotubes in the model group)×100%

[2] = target: ActRIIB (Homo sapiens, UniProt Q13705); experiment: ActRIIB inhibitory activity, ADP-Glo assay kit; format: biochemical; details: ATP 25 μM, substrate 0.1 mg/mL, ActRIIB 20.0 ng/μL
ActRIIB, sequence (Q13705 19-512): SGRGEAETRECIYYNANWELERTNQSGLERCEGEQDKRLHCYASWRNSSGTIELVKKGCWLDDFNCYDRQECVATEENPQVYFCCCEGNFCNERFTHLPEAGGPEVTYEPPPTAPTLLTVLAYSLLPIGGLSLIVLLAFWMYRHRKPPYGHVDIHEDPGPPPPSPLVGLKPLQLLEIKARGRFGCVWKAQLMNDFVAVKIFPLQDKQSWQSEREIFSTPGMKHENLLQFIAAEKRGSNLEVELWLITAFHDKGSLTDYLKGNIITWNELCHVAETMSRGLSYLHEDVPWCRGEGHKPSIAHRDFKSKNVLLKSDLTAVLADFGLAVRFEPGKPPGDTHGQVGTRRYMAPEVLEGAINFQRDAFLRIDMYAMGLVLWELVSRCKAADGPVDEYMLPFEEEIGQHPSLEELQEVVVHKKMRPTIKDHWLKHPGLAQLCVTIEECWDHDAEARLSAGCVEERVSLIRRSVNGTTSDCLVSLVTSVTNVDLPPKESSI
Procedure: The ATP and substrate concentrations recommended by the ADP-Glo™ assay kit were used, which were 25 μM and 0.1 mg/mL, respectively, and a series of isocratic final ActRIIB concentrations were set up, which were 0, 0.47, 0.94, 1.88, 3.75, 7.5, 15, 30, and 60 ng/μL, respectively. According to the […] values obtained in the experiment, an ActRIIB concentration titration curve was drawn. The ActRIIB concentrations corresponding to the ratio of the signal value to the background value (i.e., signal-to-background ratio, SBR) in the range of 5-10 times are suitable for screening compounds for inhibition of ActRIIB activity. From the ActRIIB concentration titration curve, the final ActRIIB concentrations corresponding to SB5 and SB10 were calculated to be 14.9 and 23.7 ng/μL, respectively. Finally, a final concentration of 20.0 ng/μL was selected as the experimental concentration for screening compounds for their inhibitory activity against ActRIIB. The inhibitory efficiency of 7-azaindole compounds on ActRIIB was detected at concentrations of 0.1, 1, 10, and 100 nM, respectively.

[3] = Mus musculus, read-out: Myotube atrophy reversal rate

Structure (SMILES)	Myotube atrophy reversal rate ([1]; 1.25 μM)	inhibition at 5 µM [1, 3]	IC50 [2]	inhibition at 2.5 µM [1, 3]	inhibition at 10 µM [1, 3]	inhibition at 1.25 µM ([1]; Mus musculus, 1.25 μM, read-out: Myotube atrophy reversal rate)
c1cc(-c2c[nH]c3ncc(-c4ccc(OCCN5CCOCC5)cc4)cc23)n[nH]1 [Compound 20, 3-(1H-pyrazol-3-yl)-5-(4-[[2-(1,4-oxazacyclohexan-4-yl)ethyl]oxy]phenyl)-1H-pyrrolo[2,3-b]pyridine]	54.04%	–	–	–	–	–
Cc1n[nH]c(C)c1-c1c[nH]c2ncc(-c3ccc(N4CCN(C)CC4)cc3)cc12 [Compound 5, 3-(3,5-dimethyl-1H-pyrazol-4-yl)-5-[4-(4-methylpiperazin-1-yl)phenyl]-1H-pyrrolo[2,3-b]pyridine]	–	79.5%	1.2 nM	–	–	–
CN1CCN(c2ccc(-c3cnc4[nH]cc(-c5ccncc5)c4c3)cc2)CC1 [Compound 24, 5-[4-(4-methylpiperazin-1-yl)phenyl]-3-(pyridin-4-yl)-1H-pyrrolo[2,3-b]pyridine]	–	76.7%	59.3 nM	–	–	–
Cc1n[nH]cc1-c1c[nH]c2ncc(-c3ccc(N4CCN(C)CC4)cc3)cc12 [Compound 4, 3-(3-methyl-1H-pyrazol-4-yl)-5-[4-(4-methylpiperazin-1-yl)phenyl]-1H-pyrrolo[2,3-b]pyridine]	–	63.6%	58.6 nM	–	–	–
Cn1nccc1-c1c[nH]c2ncc(-c3ccc(N4CCOCC4)cc3)cc12 [Compound 16, 3-(2-methylpyrazol-3-yl)-5-[4-(1,4-oxazacyclohexan-4-yl)phenyl]-1H-pyrrolo[2,3-b]pyridine]	–	78%	1.86 nM	–	–	–
CN1CCN(c2ccc(-c3cnc4[nH]cc(-c5ccnn5C)c4c3)cc2)CC1 [Compound 6, 5-[4-(4-methylpiperazin-1-yl)phenyl]-3-(2-methylpyrazol-3-yl)-1H-pyrrolo[2,3-b]pyridine]	–	79.1%	1.4 nM	45.9%	99.8%	–
Cn1nccc1-c1c[nH]c2ncc(-c3ccc(N4CCNCC4)cc3)cc12 [Compound 17, 3-(2-methylpyrazol-3-yl)-5-[4-(piperazin-1-yl)phenyl]-1H-pyrrolo[2,3-b]pyridine]	–	97.7%	3.61 nM	65%	–	39.9%
CN1CCN(c2ccc(-c3cnc4[nH]cc(-c5cccnc5)c4c3)cc2)CC1 [Compound 22, 5-[4-(4-methylpiperazin-1-yl)phenyl]-3-(pyridin-3-yl)-1H-pyrrolo[2,3-b]pyridine]	–	75.4%	87.3 nM	–	–	–
Cc1noc(C)c1-c1c[nH]c2ncc(-c3ccc(N4CCN(C)CC4)cc3)cc12 [Compound 19, 3-(3,5-dimethylisoxazol-4-yl)-5-[4-(4-methylpiperazin-1-yl)phenyl]-1H-pyrrolo[2,3-b]pyridine]	–	69.4%	24.2 nM	–	–	–
CN1CCN(Cc2ccc(-c3cnc4[nH]cc(-c5ccnn5C)c4c3)cc2)CC1 [Compound 15, 5-{4-[(4-methylpiperazin-1-yl)methyl]phenyl}-3-(2-methylpyrazol-3-yl)-1H-pyrrolo[2,3-b]pyridine]	–	99.1%	–	47.5%	109%	–
CN1CCN(c2ccc(-c3cnc4[nH]cc(-c5ccccc5)c4c3)cc2)CC1 [Compound 25, 5-[4-(4-methylpiperazin-1-yl)phenyl]-3-phenyl-1H-pyrrolo[2,3-b]pyridine]	–	77.1%	1.2 nM	–	–	–
Cn1nccc1-c1c[nH]c2ncc(-c3ccc(OCCN4CCCCC4)cc3)cc12 [Compound 13, 5-(4-{[2-(hexahydropyridin-1-yl)ethyl]oxy}phenyl)-3-(2-methylpyrazol-3-yl)-1H-pyrrolo[2,3-b]pyridine]	–	–	12.6 nM	–	86.2%	–
CC(C)n1nccc1-c1c[nH]c2ncc(-c3ccc(N4CCN(C)CC4)cc3)cc12 [Compound 8, 5-[4-(4-methylpiperazin-1-yl)phenyl]-3-[2-(prop-2-yl)pyrazol-3-yl]-1H-pyrrolo[2,3-b]pyridine]	–	62.2%	2.6 nM	–	–	–
Cn1nccc1-c1c[nH]c2ncc(-c3ccc(OCCN4CCOCC4)cc3)cc12 [Compound 12, 3-(2-methylpyrazol-3-yl)-5-(4-{[2-(1,4-oxazacyclohexan-4-yl)ethyl]oxy}phenyl)-1H-pyrrolo[2,3-b]pyridine]	–	73.8%	–	–	–	–
CCn1nccc1-c1c[nH]c2ncc(-c3ccc(N4CCN(C)CC4)cc3)cc12 [Compound 7, 3-(2-ethylpyrazol-3-yl)-5-[4-(4-methylpiperazin-1-yl)phenyl]-1H-pyrrolo[2,3-b]pyridine]	–	–	4.4 nM	–	77.1%	–
CN1CCN(c2ccc(-c3cnc4[nH]cc(-c5cn[nH]c5)c4c3)cc2)CC1 [Compound 1, 3-(1H-pyrazol-4-yl)-5-[4-(4-methylpiperazin-1-yl)phenyl]-1H-pyrrolo[2,3-b]pyridine]	–	–	20.4 nM	63.5%	–	–
CN1CCN(c2ccc(-c3cnc4[nH]cc(-c5cncnc5)c4c3)cc2)CC1 [Compound 23, 5-[4-(4-methylpiperazin-1-yl)phenyl]-3-(pyrimidin-5-yl)-1H-pyrrolo[2,3-b]pyridine]	–	97.9%	4.8 nM	–	–	–
CCN(CC)CCOc1ccc(-c2cnc3[nH]cc(-c4ccnn4C)c3c2)cc1 [Compound 18, 5-(4-{[2-(diethylamino)ethyl]oxy}phenyl)-3-(2-methylpyrazol-3-yl)-1H-pyrrolo[2,3-b]pyridine]	–	–	78.9 nM	–	84.5%	–
CN1CCN(C(=O)c2ccc(-c3cnc4[nH]cc(-c5ccnn5C)c4c3)cc2)CC1 [Compound 14, (4-methylpiperazin-1-yl) {4-[3-(2-methylpyrazol-3-yl)-1H-pyrrolo[2,3-b]pyridin-5-yl]phenyl}ketone]	–	–	–	–	57%	–
CN1CCN(c2ccc(-c3cnc4[nH]cc(-c5cnn(C)c5)c4c3)cc2)CC1 [Compound 9, 5-[4-(4-methylpiperazin-1-yl)phenyl]-3-(1-methylpyrazol-4-yl)-1H-pyrrolo[2,3-b]pyridine]	–	–	70.8 nM	61.1%	–	–
